Assay results: patent US11154514B2, “Quinic acid-modified nanoparticles and uses thereof” (Purdue Research Foundation, priority 2017, dated 2021)

Key:
[1] = molecular target: T1, E-selectin (Homo sapiens, UniProt P16581); test: Competitive inhibition of QANP binding to activated HUVECs; format: cell-based; conditions: pre-incubated 30 minutes, flow cytometry
T1 construct: TNF-α treatment induces the expression of E-selectin on HUVECs; endogenous in cells
T1 sequence (P16581 22-610): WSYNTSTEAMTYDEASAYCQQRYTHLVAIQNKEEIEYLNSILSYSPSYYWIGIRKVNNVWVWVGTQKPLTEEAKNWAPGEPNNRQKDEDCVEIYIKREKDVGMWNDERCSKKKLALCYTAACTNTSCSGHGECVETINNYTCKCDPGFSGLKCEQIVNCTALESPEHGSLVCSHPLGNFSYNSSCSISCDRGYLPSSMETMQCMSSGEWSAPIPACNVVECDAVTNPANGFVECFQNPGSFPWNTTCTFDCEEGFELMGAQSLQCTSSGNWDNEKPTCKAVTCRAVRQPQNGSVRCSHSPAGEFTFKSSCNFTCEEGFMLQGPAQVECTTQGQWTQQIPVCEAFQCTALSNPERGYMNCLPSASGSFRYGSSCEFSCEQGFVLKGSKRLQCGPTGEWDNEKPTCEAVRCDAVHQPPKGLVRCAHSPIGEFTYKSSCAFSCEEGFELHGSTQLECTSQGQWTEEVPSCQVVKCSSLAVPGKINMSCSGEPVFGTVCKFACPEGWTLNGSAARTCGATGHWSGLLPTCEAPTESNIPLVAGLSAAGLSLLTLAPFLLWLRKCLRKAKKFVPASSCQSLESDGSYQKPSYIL
Procedure: For flow cytometry, HUVECs were treated with NPs in the same way as above and gently washed with PBS twice to remove free or loosely bound NPs. The cells were then trypsinized, collected by centrifugation at 930×g for 5 minutes, resuspended in 0.2 mL of PBS at 0° C., and analyzed with an Accuri C6 flow cytometer (BD Biosciences, San Jose, Calif., USA) equipped with an FL-1 detector (λex/λem=488/525 nm). For competition assay, known concentrations of free QA-NH2 or E-selectin antibody were pre-incubated with HUVECs for 30 minutes, prior to the NP treatment and flow cytometry.

[2] = tested on: subcutaneous MDA-MB-231 tumor xenografts; test: In vivo whole body imaging and ex vivo organ distribution; design: species or system female athymic nude mice; conditions: tail vein, imaged over 24 hours
Procedure: All animal procedures were approved by the Purdue Animal Care and Use Committee, in compliance with the NIH guidelines for the care and use of laboratory animals. Female athymic nude mice ([…]) at the age of 6-7 weeks were purchased from Envigo (Indianapolis, Ind., USA) and acclimatized for 1 week prior to the procedure. Each mouse received 5×10^6 MDA-MB-231 cells in the flank of hind leg by subcutaneous injection. […] […] After 48 hours, mice were sacrificed, and tumors and major organs were retrieved and imaged with IVIS Lumina system. To quantify ICG content in each organ, tumor and major organs were homogenized in DMSO with a Tissue Master homogenizer (Omni International, Kennesaw, Ga., USA). The organ homogenates were centrifuged, and 0.1 mL supernatant was sampled from each homogenate and analyzed with the IVIS Lumina system.

Compound | QANP binding to the activated HUVECs in presence of competitor [1] | tumor fluorescence (whole body imaging) [2] | whole body distribution and clearance [2]
Nc1cc(NC(=O)[C@]2(O)C[C@@H](O)[C@@H](O)[C@H](O)C2)cc(C(=O)O)c1 [QA-NH2, 3-amino-5-((1 S,3R,4S,5R)-1,3,4,5-tetrahydroxycyclohexane-1-carboxamido)benzoic Acid] | reduced | – | –
CC1(C)C(/C=C/C=C/C=C/C=C2\N(CCCCS(=O)(=O)O)c3ccc4ccccc4c3C2(C)C)=[N+](CCCCS(=O)(=O)[O-])c2ccc3ccccc3c21 [free ICG, indocyanine green] | – | did not show fluorescence in tumors at all time points | gradually cleared by hepatobiliary elimination
